Data on four compounds can be found in US8586568B2, “Methods and products for treatment of diseases” (Ampio Pharmaceuticals, Inc., priority 2005, dated 2013).

Series [1] relates to Human umbilical vein endothelial cells 7016 (HUVEC). As to the kind of experiment: Invasion chamber: fetal calf serum induced endothelial cell invasion through matrigel treated inserts (trilostane III). The following applies: for Mean FU: 5% FCS in bottom chamber, 24 hours, background subtracted, n=3; for effect on endothelial cell invasion: high dose (50 μM), 5% FCS induced invasion. As for the experimental part:
1. Trypsinized HUVEC cells from flasks grown in Cambrex EGM-2 media to 70-80% confluence were washed two times with 37° C. EGM-2 with 0.1% FCS.
2. Cell suspensions containing 30,000 cells and compounds in EGM-2 0.1% FCS were added to the upper chamber of inserts.
3. EGM-2 containing 5% FCS was added to the bottom chamber and then incubated for 24 hours at 37° C. and 5% CO2.
4. Non-invading cells were removed from the upper chamber with cotton swab and the inserts were washed two times with 37° C. HBSS.
5. Inserts were then placed in wells containing 10 μM Calcein AM in HBSS.
6. Following four hours at 37° C. and 5% CO2, fluorescence was measured at 485 nm excitation and 595 nm emission.
Results are presented as mean fluorescent units (FU) in triplicate (n=3) with background fluorescence subtracted. […] To determine background invasion, nil inserts were included in triplicate that had EGM-2 with 0.1% FCS added to the bottom chamber.

The subject of series [2] is HUVEC cells. Kind of series: Danazol BioCoat Matrigel Invasion Chamber. The class given is cell-based, Human. The following applies: 5% FCS in bottom chamber; 24 hours; concentration not stated with the value. As for the experimental part:
BioCoat Matrigel Invasion Chambers were purchased from BD Biosciences (San Jose, Calif.). Inserts were rehydrated at 37° C. with 500 μl HBSS for 2 hours prior to use in humidified incubator. Trypsinized HUVEC cells were washed twice with warm EGM-2 containing 0.1% FCS and added to the upper chamber of the invasion insert at 100,000 cells in a total volume of 250 μl. Danazol and control compounds were added to the upper reservoir at final concentrations of 10 μM and 100 μM. 750 μl EGM-2 supplemented with 5% FCS was added to the bottom chamber to initiate invasion and the plates were incubated for 24 hours. Non-invasive cells were removed from the upper chamber with moistened cotton swabs and then the inserts were washed twice with HBSS. The inserts were then submerged in 10 μM calcein AM prepared in HBSS and incubated for 4 hours. Fluorescence was determined in a microplate reader at 485 nm excitation and 595 nm emission.
All data is presented as representative experiment done in triplicate. Differences between subsets were analyzed using student t-test in Microsoft Excel. P<0.05 was considered statistically significant.

Series [3] deals with HUVEC cells. Kind of series: Trilostane III effect on HUVEC cell proliferation (Celltiter 96 Aqueous One). The following applies: for mean OD: 5% FCS, blank subtracted; for OD 1: replicate 1; for OD 2: replicate 2; for OD 3: replicate 3; for inhibition at 100 µM: Homo sapiens, HUVEC, read-out: inhibition of cultures (cell proliferation). The format is cell-based, Human. As for the experimental part: 2. Medium was aspirated and the cells were then washed two times with 37° C. HBSS.
4. Cells were again washed to times with warm HBSS and then Celltiter reagent in EGM-2 with 0.1% FCS was added.
5. After 4 hours in culture the OD of each well was determine at 470 nm.
6. Repeat steps 4 and 5 for each time point.
Results are presented as mean OD of samples performed in triplicate (n=3) with mean blank OD subtracted. HUVEC 8750 cells were used for this experiment with 98% viability by trypan blue exclusion at time of seeding. […] The raw data are shown in Table 2 below and depicted graphically in FIG. 2.

The test system of series [4] is HUVEC cells. Kind of series: Trilostane III tube formation assay in extracellular matrix gel. The class given is cell-based, Human. Particulars: 50 μM, 18 hours. As for the experimental part:
1. […] EGM-2 with 0.1% FCS.
2. Cell suspensions containing 10,000 cells and compounds in both EGM-2 0.1% and 5% FCS were added per well then incubated for 18 hours at 37° C. and 5% CO2.
3. Following incubation, tube formations were photographed under microscope.
Passage 3 HUVEC 8750 cells were used for this experiment at 98% viability by trypan blue exclusion at time of seeding.

[5] abbreviates: without added 5% FCS (nil wells, 0.1% FCS).

Where two headings read alike, the source gives them in different places.

In the case of “2α-cyano-4α,5α-epoxyandrostan-17β-ol-3-one [trilostane]”, the entries for the “Mean FU” value in series [1] (25 μM) and in series [1] (50 μM) were 11212.3 FU and 9101.33 FU, respectively.
On to `O=c1cc(N2CCOCC2)oc2c(-c3ccccc3)cccc12` [LY294002], for which, in the series with HUVEC cells [2], the “fluorescence of invaded cells” value was 5814±153 FU. Further, the “Mean FU” value in series [1] (50 μM) is 9454.33 FU.
Take `C[C@]12CCC3C(CC[C@@]45O[C@@H]4C4ON=CC4C[C@]35C)C1CC[C@@H]2O` (stereo partly drawn) [trilostane III]: the “mean OD” value in the series with HUVEC cells [3] (0.1 uM, 24 hour) was found to be 0.3873; in the series with HUVEC cells [3] (0.1 uM, 48 hour) it was 0.656; in the series on HUVEC cells [3] (0.1 uM, 72 hour) it was 0.9187; in the series on HUVEC cells [3] (1 uM, 24 hour), 0.311; with HUVEC cells [3] (1 uM, 48 hour) it was 0.4347; with HUVEC cells [3] (1 uM, 72 hour), 0.3877. For the same compound, the “mean OD” value in the series on HUVEC cells [3] (10 uM, 24 hour) is 0.2467; in the series on HUVEC cells [3] (10 uM, 48 hour) it was 0.203; in the series on HUVEC cells [3] (10 uM, 72 hour) it was 0.072; in the series with HUVEC cells [3] (100 uM, 24 hour), 0.2787; in the series with HUVEC cells [3] (100 uM, 48 hour) it was 0.2147; in the series with HUVEC cells [3] (100 uM, 72 hour), 0.108. Moreover, the “OD 1” value turned out to be 0.362 with HUVEC cells [3] (0.1 uM, 24 hour); 0.575 in the series with HUVEC cells [3] (0.1 uM, 48 hour); 0.733 with HUVEC cells [3] (0.1 uM, 72 hour); 0.284 in the series on HUVEC cells [3] (1 uM, 24 hour); 0.358 in the series on HUVEC cells [3] (1 uM, 48 hour); 0.387 with HUVEC cells [3] (1 uM, 72 hour). For the same compound, the “OD 1” value in the series with HUVEC cells [3] (10 uM, 24 hour) was 0.18; in the series on HUVEC cells [3] (10 uM, 48 hour), 0.159; in the series with HUVEC cells [3] (10 uM, 72 hour), 0.031; in the series on HUVEC cells [3] (100 uM, 24 hour), 0.235; in the series with HUVEC cells [3] (100 uM, 48 hour) it was 0.17; in the series on HUVEC cells [3] (100 uM, 72 hour) it was 0.092. For the same compound, the “OD 2” value amounted to 0.368 in the series on HUVEC cells [3] (0.1 uM, 24 hour); 0.698 with HUVEC cells [3] (0.1 uM, 48 hour); 0.962 in the series with HUVEC cells [3] (0.1 uM, 72 hour); 0.328 in the series on HUVEC cells [3] (1 uM, 24 hour); 0.489 in the series on HUVEC cells [3] (1 uM, 48 hour); 0.437 in the series on HUVEC cells [3] (1 uM, 72 hour). Moreover, the “OD 2” value in the series on HUVEC cells [3] (10 uM, 24 hour) amounted to 0.267; in the series with HUVEC cells [3] (10 uM, 48 hour), 0.208; with HUVEC cells [3] (10 uM, 72 hour) it was 0.095; in the series on HUVEC cells [3] (100 uM, 24 hour), 0.334; in the series with HUVEC cells [3] (100 uM, 48 hour), 0.23; with HUVEC cells [3] (100 uM, 72 hour), 0.119. Also, the “OD 3” value in the series on HUVEC cells [3] (0.1 uM, 24 hour) stood at 0.432; in the series on HUVEC cells [3] (0.1 uM, 48 hour) it was 0.695; with HUVEC cells [3] (0.1 uM, 72 hour), 1.061; in the series with HUVEC cells [3] (1 uM, 24 hour), 0.321; in the series on HUVEC cells [3] (1 uM, 48 hour) it was 0.457; with HUVEC cells [3] (1 uM, 72 hour), 0.339. Moreover, the “OD 3” value was found to be 0.293 with HUVEC cells [3] (10 uM, 24 hour); 0.242 in the series on HUVEC cells [3] (10 uM, 48 hour); 0.09 in the series on HUVEC cells [3] (10 uM, 72 hour); 0.267 in the series on HUVEC cells [3] (100 uM, 24 hour); 0.244 in the series on HUVEC cells [3] (100 uM, 48 hour); 0.113 in the series on HUVEC cells [3] (100 uM, 72 hour). Also, the “lowest concentration with statistically relevant decrease in cell proliferation” value in the series on HUVEC cells [3] (24 hours) is 1 µM. The results for the inhibition at 100 µM in the series with HUVEC cells [3] (24 hours), in the series with HUVEC cells [3] (48 hours) and with HUVEC cells [3] (72 hours) were 33%, 67% and 90%, respectively. Also, in the series on HUVEC cells [3] (all wells, even highest doses after 72 hours in culture), the “cell viability under inverted microscope” value was “Viable cells were visible in all wells”. For the same compound, the “effect on endothelial cell invasion” value in series [1] is reported as “dropped the levels back to background”. The “tube formation” value with HUVEC cells [4] (in the presence of 5% fetal calf serum) is “greatly reduced tube formation”; in the series on HUVEC cells [4] (setting [5]) it was “decrease in branching, vacuole formation, and increase in satellite cells”.
`O=c1cc(N2CCNCC2)oc2c(-c3ccccc3)cccc12` [LY303511]: the “Mean FU” value in series [1] (50 μM) worked out at 12795.3 FU. Besides, the “effect on endothelial cell invasion” value in series [1] was “had no effect on invasion”. In the series on HUVEC cells [4] (setting [5]), the “tube formation” value is reported as “comparable tube formations to untreated cells”.
